{"source": "patent US12485104B2", "about": "“Amino acid derivatives containing a disulfanyl group as an inhibitor of NEP and APN for the prevention and treatment of trigeminal nerve pain” (KOS THERAPEUTICS, INC., priority 2018, dated 2025)", "key": {"[1]": {"system": "SJL mice, EAE model (hyperalgesia)", "assay": "Tail immersion test in multiple sclerosis model (experimental autoimmune encephalomyelitis, EAE)", "assay_type": "in vivo", "settings": "for Nociceptive threshold (tail withdrawal latency time): 20 min after administration, 48° C. bath", "from_the_text": "The multiple sclerosis model can be induced in SJL mice, female albino white mice, by the administration of an emulsion made up of a myeline fragment and complete Freund® adjuvant (Aicher et al., Pain (2004), 110: 560-570). Central nervous system inflammation appears at the end of around ten days=experimental autoimmune encephalomyelitis, or EAE.\nFemale SJL mice, purchased from Charles River Laboratories, arrive at the age of 5 weeks and are immunized at the age of 6 weeks. Each mouse receives, under mask anesthesia (2% isoflurane), an emulsion of a volume of 200 μL in the left flank, containing 150 μg of PLP139-151 (Proteolipid Protein Myelin, fragment 139-151) in 100 μL of sterile 0.9% NaCl as well as 100 μL of incomplete Freund® adjuvant (Sigma) completed by inactivated Mycobacterium tuberculosis (Difco, USA) at 4 mg/mL=complete adjuvant.\nThe symptoms of the disease are reported between D10 and D15, which is reflected by an acute phase, during which scores are high and the animals present a loss of pain sensitivity. This phase precedes a chronic phase which starts around D18 and is characterized by stabilization of the animals general condition and the onset of a significant lowering in the pain perception threshold (hyperalgic state) (Aicher et al., Pain (2004), 110: 560-570).\nNociceptive thresholds were determined from D12 by the tail immersion test.\nCompound 1 is administered IP (intraperitoneally) at 50 mg/kg and 100 mg/kg in a EtOH/Tween 80/Water carrier (10/10/80) (100 μL per 10 g of mice). The measurement of time of tail withdrawal from a 48° C. bath is done at 20 min after injection (cut-off=10 sec)."}, "[2]": {"system": "rats, migraine model induced by repeated injection of isosorbide dinitrate (ISDN)", "assay": "Persistent cephalic allodynia induced by recurrent ISDN (chronic migraine), von Frey test, IV treatment", "assay_type": "in vivo", "settings": "20 mg/kg intravenously (FIG. 2)", "description": "The effects of systemic administration of compound 1 on mechanical cephalic allodynia were tested in rats in a migraine model induced by repeated systemic injection of an NO donor, isosorbide dinitrate (ISDN). Indeed, the powerful vasodilating action of “NO donors” explains their particular propensity to trigger headache in healthy subjects and migraine attacks in migraine patients (Hansen & Olesen, Cephalalgia (2017), 37: 11-19).\nThe experiments were conducted on male Sprague-Dawley CD rats (200-250 g, Charles River Laboratories). A minimum delay of 7 days was respected before any experimentation. […]\n(§1) The mechanical sensitivity of the periorbital region was measured by the von Frey test, which consists of applying a range of von Frey filaments in this region, calibrated to exert a constant force (expressed in grams) to determine the force (threshold) that leads to a head withdrawal reaction. […] The rats then received successive intraperitoneal injections of ISDN (10 mg/kg) and cutaneous sensitivity was assessed by means of the von Frey test. […] On the day of the experiment, the forces exerted by the von Frey filaments that led to head withdrawal were measured in each rat under controlled conditions every 30 minutes for 4 hours. […]"}, "[3]": {"system": "healthy volunteers", "assay": "Adverse effects observed during phase 1b clinical study", "settings": "N = 6", "procedure": "The doses indicated in the following table were administered 4 times a day for 5 days, the daily dose varying from 800 to 4000 mg, the total quantity over five days being comprised between 4000 and 20,000 mg."}, "[4]": {"system": "rats, migraine model induced by single injection of isosorbide dinitrate (ISDN)", "assay": "Mechanical cephalic allodynia induced by single ISDN (acute migraine), von Frey test, oral treatment", "assay_type": "in vivo", "settings": "50 mg/kg orally (FIG. 3)", "description": "The effects of systemic administration of compound 1 on mechanical cephalic allodynia were tested in rats in a migraine model induced by single systemic injection of an NO donor, isosorbide dinitrate (ISDN). Indeed, the powerful vasodilating action of “NO donors” explains their particular propensity to trigger headache in healthy subjects and migraine attacks in migraine patients (Hansen & Olesen, Cephalalgia (2017), 37: 11-19).\nThe experiments were conducted on male Sprague-Dawley CD rats (200-250 g, Charles River Laboratories). A minimum delay of 7 days was respected before any experimentation.\n(§2) The animals were first subjected to habituation sessions designed to reproduce the animals environmental conditions and handling by the experimenter during the final test.\nas §1, with “an” for “successive”, “injection” for “injections”"}, "[5]": {"system": "rats, chronic migraine model induced by repeated injection of isosorbide dinitrate (ISDN)", "assay": "Prevention of migraine attacks by oral administration, chronic ISDN model, von Frey test", "assay_type": "in vivo", "description": "The effects of oral administration of compound 1 on mechanical cephalic allodynia were tested in rats in a chronic migraine model induced by repeated systemic injection of an NO donor, isosorbide dinitrate (ISDN). Indeed, the powerful vasodilating action of “NO donors” explains their particular propensity to trigger headache in healthy subjects and migraine attacks in migraine patients (Hansen & Olesen, Cephalalgia (2017), 37: 11-19).\nThe experiments were conducted on male rats (10 rats per group of the Sprague-Dawley CD strain (200-250 g, Charles River Laboratories), randomly assigned into each group before experimentation. A minimum delay of 7 days was respected before any experimentation. The experiments were conducted with the experimenter blinded.\nas §2\nThe mechanical sensitivity of the periorbital region was measured by the von Frey test, which consists of applying a range of von Frey filaments in this region, calibrated to exert a constant force (expressed in grams) to determine the force (threshold) that leads to a head withdrawal reaction. The rats were habituated to these tests for 5 days preceding the experiment for one hour, so that repeated measurements give reproducible results. […] The rats then received successive intraperitoneal injections of ISDN (10 mg/kg) and cutaneous sensitivity was assessed by means of the von Frey test. […]\nCutaneous mechanical sensitivity was measured before and on the test day (FIG. 4, single administration of compound 1 or FIG. 6, repeated administration of compound 1) or before and on the test day (Days 1, 2, 3, 4 and 5) (FIG. 5, repeated administration of compound 1) before injection and at 30 min intervals for 4 h in the different groups of rats receiving intraperitoneal ISDN (10 mg/kg, volume of 10 mL/kg). […]"}, "[6]": {"settings": "200 mg 4 times a day for 5 days"}, "[7]": {"settings": "400 mg 4 times a day for 5 days"}, "[8]": {"settings": "600 mg 4 times a day for 5 days"}, "[9]": {"settings": "800 mg 4 times a day for 5 days"}, "[10]": {"settings": "1000 mg 4 times a day for 5 days"}}}
{"compound": "CCOC(=O)OC(C)OC(=O)CNC(=O)[C@@H](CSSC[C@@H](N)CCSC)Cc1ccccc1.O=C(O)/C=C/C(=O)O", "note": "(stereo partly drawn) [Compound 1, (5S,10S)-10-benzyl-16-methyl-11,14,18-trioxo-15,17,19-trioxa-2,7,8-trithia-12-azahenicosan-5-aminium fumarate]", "values": [{"measurement": "Nociceptive threshold (tail withdrawal latency time)", "setting": "[1]; 50 mg/kg IP, D21", "result": "5.12 (4) seconds"}, {"measurement": "Nociceptive threshold (tail withdrawal latency time)", "setting": "[1]; 50 mg/kg IP, D28", "result": "4.14 (5) seconds"}, {"measurement": "Nociceptive threshold (tail withdrawal latency time)", "setting": "[1]; 100 mg/kg IP, D28", "result": "5.98 (5) seconds"}, {"measurement": "Nociceptive threshold (tail withdrawal latency time)", "setting": "[1]; 100 mg/kg IP, D35", "result": "5.46 (5) seconds"}, {"measurement": "Effect on hyperalgesia", "setting": "[1]; 50 and 100 mg/kg IP (FIG. 1)", "result": "permits reducing hyperalgesia"}, {"measurement": "Effect on cephalic cutaneous sensitivity (von Frey)", "setting": "[2]", "result": "considerably reduces cephalic cutaneous sensitivity"}, {"measurement": "Subjects with Death", "setting": "[3]; [6]", "result": 0}, {"measurement": "Subjects with LAE (limiting adverse event)", "setting": "[3]; [6]", "result": 0}, {"measurement": "Subjects with SAE (serious adverse event)", "setting": "[3]; [6]", "result": 0}, {"measurement": "Subjects with TEAEs, (%)", "setting": "[3]; [6]", "result": 16.7, "unit": "%"}, {"measurement": "TEAEs, E = number of adverse reactions", "setting": "[3]; [6]", "result": 3}, {"measurement": "Subjects with Death", "setting": "[3]; [7]", "result": 0}, {"measurement": "Subjects with LAE (limiting adverse event)", "setting": "[3]; [7]", "result": 0}, {"measurement": "Subjects with SAE (serious adverse event)", "setting": "[3]; [7]", "result": 0}, {"measurement": "Subjects with TEAEs, (%)", "setting": "[3]; [7]", "result": 83.3, "unit": "%"}, {"measurement": "TEAEs, E = number of adverse reactions", "setting": "[3]; [7]", "result": 12}, {"measurement": "Subjects with Death", "setting": "[3]; [8]", "result": 0}, {"measurement": "Subjects with LAE (limiting adverse event)", "setting": "[3]; [8]", "result": 0}, {"measurement": "Subjects with SAE (serious adverse event)", "setting": "[3]; [8]", "result": 0}, {"measurement": "Subjects with TEAEs, (%)", "setting": "[3]; [8]", "result": 66.7, "unit": "%"}, {"measurement": "TEAEs, E = number of adverse reactions", "setting": "[3]; [8]", "result": 7}, {"measurement": "Subjects with Death", "setting": "[3]; [9]", "result": 0}, {"measurement": "Subjects with LAE (limiting adverse event)", "setting": "[3]; [9]", "result": 0}, {"measurement": "Subjects with SAE (serious adverse event)", "setting": "[3]; [9]", "result": 0}, {"measurement": "Subjects with TEAEs, (%)", "setting": "[3]; [9]", "result": 100.0, "unit": "%"}, {"measurement": "TEAEs, E = number of adverse reactions", "setting": "[3]; [9]", "result": 10}, {"measurement": "Subjects with Death", "setting": "[3]; [10]", "result": 0}, {"measurement": "Subjects with LAE (limiting adverse event)", "setting": "[3]; [10]", "result": 0}, {"measurement": "Subjects with SAE (serious adverse event)", "setting": "[3]; [10]", "result": 0}, {"measurement": "Subjects with TEAEs, (%)", "setting": "[3]; [10]", "result": 66.7, "unit": "%"}, {"measurement": "TEAEs, E = number of adverse reactions", "setting": "[3]; [10]", "result": 15}, {"measurement": "Effect on cephalic cutaneous sensitivity (von Frey)", "setting": "[4]", "result": "considerably reduces cephalic cutaneous sensitivity"}, {"measurement": "Effect on cutaneous cephalic sensitivity (von Frey)", "setting": "[5]; 50 mg/kg orally once daily for 5 days, as a function of time after ISDN, versus carrier (FIG. 6)", "result": "significantly reduces cutaneous cephalic sensitivity"}, {"measurement": "Effect on cutaneous cephalic sensitivity (von Frey)", "setting": "[5]; 50 mg/kg orally once on the experiment day (FIG. 4)", "result": "had no effect on cutaneous cephalic sensitivity"}, {"measurement": "Effect on cutaneous cephalic sensitivity (von Frey)", "setting": "[5]; 50 mg/kg orally repeatedly over 5 days, before administration of ISDN, versus carrier (FIG. 5)", "result": "significantly reduces cutaneous cephalic sensitivity"}]}
